System: patients with advanced or metastatic solid tumors
Assay: Phase 1 study: treatment-related adverse events (NCI CTCAE v4.03)
Assay type: in vivo, human
Protocol: The highest non-severely toxic dose was derived from a dog toxicology study and was used to calculate a clinical starting dose of 10 mg/m^2, which corresponds to one-sixth of the human-equivalent dose. The maximum tolerated dose (MTD) of TAS4464 was investigated using an accelerated titration design. Initially, the starting TAS4464 dose was 10 mg/m^2 and was followed by an initial accelerated stage (i.e., weekly dosing phase) with 100% dose-step increments (level 1: 10 mg/m^2, level 2: 20 mg/m^2, level 3: 40 mg/m^2, and level 4: 56 mg/m^2). The 100% dose-step increments continued until the occurrence of a grade ≥ 2 drug-related toxicity within Cycle 1; dose-limiting toxicity (DLT) within Cycle 1; the next dose level reaching 60 mg/m^2; or any safety concerns. Thereafter, 40% increments were employed in the standard stage.
In the standard stage, three to six patients were to be enrolled, and the dose was escalated in 40% increments if none of the first three patients experienced a DLT. If one patient experienced a DLT, three additional patients were to be enrolled at the same dose level. If two of three or two of six patients experienced a DLT, the dose escalation was to be ceased. […] Additionally, DLT criteria regarding abnormal liver function and discontinuation criteria for study drug administration were added. The TAS4464 dose level for Day 1 of Cycle 1 was then set to 40 mg/m^2 (level 3).
Therefore, TAS4464 was administered every 7 days by 1-h intravenous infusion (± 10 min) at the dose assigned to each level. Study treatment was repeated every 28 days. The dosing regimens of each cohort are summarized in Supplementary Fig. 1.
Secondary objectives included assessment of AEs, treatment-related AEs, objective response rate (ORR), disease control rate (DCR), progression-free survival (PFS), and PK, pharmacodynamic, and pharmacogenomic (PGx) parameters with TAS4464 administration. The National Cancer Institute Common Terminology Criteria for Adverse Events (NCI CTCAE) v4.03 [17] was used to assess the severity of AEs. […] RECIST v1.1 [16] was used to determine clinical response, and all computed tomography images were assessed by the physician at the study site after completion of the imaging procedure. The ORR was defined as the percentage of patients with the best overall response of complete response (CR) or partial response (PR). The DCR was the percentage of patients with a best overall response of CR, PR, stable disease (SD), or non-CR/non-progressive disease (PD). PFS was defined as the time from the date of enrollment until the date of investigator-assessed radiological disease progression or death due to any cause, whichever occurred first.

[1] = All-grade, weekly dosing Level 1 (10 mg/m^2), n = 1
[2] = All-grade, weekly dosing Level 2 (20 mg/m^2), n = 1
[3] = All-grade, weekly dosing Level 3 (40 mg/m^2), n = 3
[4] = All-grade, weekly dosing Level 4 (56 mg/m^2), n = 5
[5] = All-grade, weekly dosing with lead-in Level 3 (20 → 40 mg/m^2), n = 3
[6] = All-grade, weekly dosing with lead-in Level 4 (20 → 56 mg/m^2), n = 3

CCOc1cccc(F)c1C#Cc1cn([C@@H]2O[C@H](CNS(N)(=O)=O)[C@@H](O)[C@H]2O)c2ncnc(N)c12 [TAS4464]
one patient each: AEs leading to dose reduction (ALT increased, weekly dosing level 4) | AEs leading to treatment discontinuation (AST and ALT increased, weekly dosing with lead-in period level 4)
did not occur: Grade ≥ 2 abnormal liver function tests (10 or 20 mg/m^2 weekly doses)
2 (12.5) n (%): Fatigue (treatment-related adverse event) (All-grade, Total, N = 16) | Hypoalbuminemia (treatment-related adverse event) (All-grade, Total, N = 16) | Neuropathy peripheral (treatment-related adverse event) (All-grade, Total, N = 16) | Pyrexia (treatment-related adverse event) (All-grade, Total, N = 16)
2 (40.0) n (%): Blood bilirubin increased (treatment-related adverse event) [4] | Decreased appetite (treatment-related adverse event) [4] | Diarrhea (treatment-related adverse event) [4] | Malaise (treatment-related adverse event) [4] | Neuropathy peripheral (treatment-related adverse event) [4] | Rash (treatment-related adverse event) [4] | Vomiting (treatment-related adverse event) [4]
five patients: Grade ≥ 2 abnormal liver function tests (40 and 56 mg/m^2 weekly doses)
5 (100.0) n (%): ALT increased (treatment-related adverse event) [4]
0 n (%): ALP increased (treatment-related adverse event) [1] | Anemia (treatment-related adverse event) [1] | Blood bilirubin increased (treatment-related adverse event) [1] | Decreased appetite (treatment-related adverse event) [1] | Diarrhea (treatment-related adverse event) [1] | Fatigue (treatment-related adverse event) [1] | GGT increased (treatment-related adverse event) [1] | Malaise (treatment-related adverse event) [1] | Nausea (treatment-related adverse event) [1] | Neuropathy peripheral (treatment-related adverse event) [1] | Pyrexia (treatment-related adverse event) [1] | Rash (treatment-related adverse event) [1] | Vomiting (treatment-related adverse event) [1] | WBC decreased (treatment-related adverse event) [1] | ALP increased (treatment-related adverse event) [2] | AST increased (treatment-related adverse event) [2] | Anemia (treatment-related adverse event) [2] | Blood bilirubin increased (treatment-related adverse event) [2] | Decreased appetite (treatment-related adverse event) [2] | Diarrhea (treatment-related adverse event) [2] | Fatigue (treatment-related adverse event) [2] | GGT increased (treatment-related adverse event) [2] | Hypoalbuminemia (treatment-related adverse event) [2] | Malaise (treatment-related adverse event) [2] | Nausea (treatment-related adverse event) [2] | Neuropathy peripheral (treatment-related adverse event) [2] | Pyrexia (treatment-related adverse event) [2] | Rash (treatment-related adverse event) [2] | Vomiting (treatment-related adverse event) [2] | WBC decreased (treatment-related adverse event) [2] | Anemia (treatment-related adverse event) [3] | Neuropathy peripheral (treatment-related adverse event) [3] | Pyrexia (treatment-related adverse event) [3] | Rash (treatment-related adverse event) [3] | Hypoalbuminemia (treatment-related adverse event) [4] | Pyrexia (treatment-related adverse event) [4] | ALP increased (treatment-related adverse event) [5] | Blood bilirubin increased (treatment-related adverse event) [5] | Diarrhea (treatment-related adverse event) [5] | Fatigue (treatment-related adverse event) [5] | GGT increased (treatment-related adverse event) [5] | Hypoalbuminemia (treatment-related adverse event) [5] | Malaise (treatment-related adverse event) [5] | Neuropathy peripheral (treatment-related adverse event) [5] | Rash (treatment-related adverse event) [5] | WBC decreased (treatment-related adverse event) [5] | Blood bilirubin increased (treatment-related adverse event) [6] | Decreased appetite (treatment-related adverse event) [6] | Diarrhea (treatment-related adverse event) [6] | Fatigue (treatment-related adverse event) [6] | GGT increased (treatment-related adverse event) [6] | Hypoalbuminemia (treatment-related adverse event) [6] | Malaise (treatment-related adverse event) [6] | Nausea (treatment-related adverse event) [6] | Neuropathy peripheral (treatment-related adverse event) [6] | Pyrexia (treatment-related adverse event) [6] | Vomiting (treatment-related adverse event) [6]
3 (18.8) n (%): Anemia (treatment-related adverse event) (All-grade, Total, N = 16) | Blood bilirubin increased (treatment-related adverse event) (All-grade, Total, N = 16) | Diarrhea (treatment-related adverse event) (All-grade, Total, N = 16) | Malaise (treatment-related adverse event) (All-grade, Total, N = 16) | Rash (treatment-related adverse event) (All-grade, Total, N = 16) | WBC decreased (treatment-related adverse event) (All-grade, Total, N = 16)
11 (68.8) n (%): ALT increased (treatment-related adverse event) (All-grade, Total, N = 16)
5 (31.3) n (%): Decreased appetite (treatment-related adverse event) (All-grade, Total, N = 16) | ALT increased (treatment-related adverse event) (Grade ≥ 3, Total, N = 16) | AST increased (treatment-related adverse event) (Grade ≥ 3, Total, N = 16)
2 (66.7) n (%): ALP increased (treatment-related adverse event) [3] | Decreased appetite (treatment-related adverse event) [3] | Nausea (treatment-related adverse event) [3] | AST increased (treatment-related adverse event) [5] | Pyrexia (treatment-related adverse event) [5] | ALT increased (treatment-related adverse event) [6] | AST increased (treatment-related adverse event) [6]
1 (6.3) n (%): ALP increased (treatment-related adverse event) (Grade ≥ 3, Total, N = 16)
4 (80.0) n (%): ALP increased (treatment-related adverse event) [4] | AST increased (treatment-related adverse event) [4] | Nausea (treatment-related adverse event) [4]
10 (62.5) n (%): AST increased (treatment-related adverse event) (All-grade, Total, N = 16)
7 (43.8) n (%): ALP increased (treatment-related adverse event) (All-grade, Total, N = 16) | Nausea (treatment-related adverse event) (All-grade, Total, N = 16)
4 (25.0) n (%): GGT increased (treatment-related adverse event) (All-grade, Total, N = 16) | Vomiting (treatment-related adverse event) (All-grade, Total, N = 16)
1 (20.0) n (%): Anemia (treatment-related adverse event) [4] | Fatigue (treatment-related adverse event) [4] | WBC decreased (treatment-related adverse event) [4]
1 (33.3) n (%): ALT increased (treatment-related adverse event) [3] | AST increased (treatment-related adverse event) [3] | Blood bilirubin increased (treatment-related adverse event) [3] | Diarrhea (treatment-related adverse event) [3] | Fatigue (treatment-related adverse event) [3] | GGT increased (treatment-related adverse event) [3] | Hypoalbuminemia (treatment-related adverse event) [3] | Malaise (treatment-related adverse event) [3] | Vomiting (treatment-related adverse event) [3] | WBC decreased (treatment-related adverse event) [3] | ALT increased (treatment-related adverse event) [5] | Anemia (treatment-related adverse event) [5] | Decreased appetite (treatment-related adverse event) [5] | Nausea (treatment-related adverse event) [5] | Vomiting (treatment-related adverse event) [5] | ALP increased (treatment-related adverse event) [6] | Anemia (treatment-related adverse event) [6] | Rash (treatment-related adverse event) [6] | WBC decreased (treatment-related adverse event) [6]
1 (100.0) n (%): ALT increased (treatment-related adverse event) [1] | AST increased (treatment-related adverse event) [1] | Hypoalbuminemia (treatment-related adverse event) [1] | ALT increased (treatment-related adverse event) [2]
3 (60.0) n (%): GGT increased (treatment-related adverse event) [4]
